From paper PMC8119466, “A screen of FDA-approved drugs identifies inhibitors of protein tyrosine phosphatase 4A3 (PTP4A3 or PRL-3)” (Scientific Reports, 2021)
Counter-ions that a name gives are not always drawn. Like-named read-outs stand apart in the source and are kept apart here.

Experiments:
Type in all cases: biochemical
recombinant PRL-3 = target: T1, recombinant PRL-3 (Homo sapiens, UniProt O75365); assay: In vitro phosphatase assay (DiFMUP hydrolysis), PRL-3; note: test concentration or dose not given here
T1 construct: 6xHis (N, cleaved yes); made in house; host or cells: E. coli One Shot BL21 Star

recombinant PRL-1 = target: T2, recombinant PRL-1 (Homo sapiens, UniProt Q93096); assay: In vitro phosphatase assay (DiFMUP hydrolysis), PRL-1; note: test concentration or dose not given here
T2 construct: 6xHis (N, cleaved yes); made in house; host or cells: E. coli One Shot BL21 Star
T2 sequence (Q93096 1-173): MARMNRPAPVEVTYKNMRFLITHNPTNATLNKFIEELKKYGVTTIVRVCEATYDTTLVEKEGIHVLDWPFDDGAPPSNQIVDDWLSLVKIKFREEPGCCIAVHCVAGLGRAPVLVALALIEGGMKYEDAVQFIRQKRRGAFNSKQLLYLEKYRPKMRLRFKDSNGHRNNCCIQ

recombinant PRL-2 = target: T3, recombinant PRL-2 (Homo sapiens, UniProt Q12974); assay: In vitro phosphatase assay (DiFMUP hydrolysis), PRL-2;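 note: PRL-2 activity read as DiFMUP hydrolysis after 20 min at room temperature with drug, enzyme first pre-reduced at 4 °C for 20 min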
T3 construct: 6xHis (N, cleaved yes); made in house; host or cells: E. coli One Shot BL21 Star
T3 sequence (Q12974 1-167): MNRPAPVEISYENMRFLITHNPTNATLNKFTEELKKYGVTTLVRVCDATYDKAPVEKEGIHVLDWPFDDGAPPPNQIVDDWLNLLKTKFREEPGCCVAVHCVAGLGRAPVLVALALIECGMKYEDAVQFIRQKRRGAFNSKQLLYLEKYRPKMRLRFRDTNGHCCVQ

[1] = FDA-approved drug screen, activity compared to DMSO
[2] = FDA-approved drug screen, compared to DMSO

T1 sequence (O75365 whole entry): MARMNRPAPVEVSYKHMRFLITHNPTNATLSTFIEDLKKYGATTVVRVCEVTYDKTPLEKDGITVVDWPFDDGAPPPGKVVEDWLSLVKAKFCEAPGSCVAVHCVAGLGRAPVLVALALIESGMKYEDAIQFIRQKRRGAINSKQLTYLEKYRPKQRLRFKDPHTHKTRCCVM

| Compound | % Phosphatase Activity (compared to DMSO) PRL-3 (recombinant PRL-3; [2]) [%] | % Phosphatase Activity (compared to DMSO) PRL-1 (recombinant PRL-1; [2]) [%] | % Phosphatase Activity (compared to DMSO) PRL-2 (recombinant PRL-2; [2]) [%] | other results |
| --- | --- | --- | --- | --- |
| NC[C@H]1CC[C@H](C(=O)O)CC1 [Tranexamic Acid] | – | – | – | % Phosphatase Activity (compared to DMSO) PRL-3 (recombinant PRL-3; [1]): 96%; % Phosphatase Activity (compared to DMSO) PRL-1 (recombinant PRL-1; [1]): 92%; % Phosphatase Activity (compared to DMSO) PRL-2 (recombinant PRL-2; [1]): 89% |
| C[C@@H]1CC(=O)NN=C1c1ccc(NN=C(C#N)C#N)cc1 [Levosimendan] | 69 | 76 | 58 | – |
| CC(C)[C@H](O)C(=O)N[C@@H](C)C(=O)N[C@@H]1C(=O)N(C)CCc2ccccc21 [Semagacestat (LY450139)] | 86 | 104 | 120 | – |
| CCCCC1C(=O)N(c2ccccc2)N(c2ccccc2)C1=O [Phenylbutazone] | 81 | 104 | 84 | – |
| COc1ccc(C(=O)NCc2ccc(OCCN(C)C)cc2)cc1OC.Cl [Itopride hydrochloride] | 80 | 95 | 115 | – |
| CCCc1nc2c(C)cc(-c3nc4ccccc4n3C)cc2n1Cc1ccc(-c2ccccc2C(=O)O)cc1 [Telmisartan] | – | – | – | % Phosphatase Activity (compared to DMSO) PRL-3 (recombinant PRL-3; [1]): 92%; % Phosphatase Activity (compared to DMSO) PRL-1 (recombinant PRL-1; [1]): 86%; % Phosphatase Activity (compared to DMSO) PRL-2 (recombinant PRL-2; [1]): 77% |
| CCCSc1nc(N[C@@H]2C[C@H]2c2ccc(F)c(F)c2)c2nnn([C@@H]3C[C@H](OCCO)[C@@H](O)[C@H]3O)c2n1 [Ticagrelor] | – | – | – | % Phosphatase Activity (compared to DMSO) PRL-3 (recombinant PRL-3; [1]): 85%; % Phosphatase Activity (compared to DMSO) PRL-1 (recombinant PRL-1; [1]): 97%; % Phosphatase Activity (compared to DMSO) PRL-2 (recombinant PRL-2; [1]): 94% |
| COc1ccc2c(c1OC)C(=O)O[C@@H]2[C@H]1c2c(cc3c(c2OC)OCO3)CCN1C [Noscapine HCl] | 103 | 92 | 116 | – |
| Cl.NCCc1c[nH]c2ccc(O)cc12 [Serotonin HCl] | 80 | 106 | 101 | – |
| CN(C)Cc1ccc(S(=O)(=O)n2ccc(/C=C/C(=O)NO)c2)cc1 [Resminostat] | 90 | 102 | 113 | – |
| CC(C)(C)C(=O)Oc1ccc(S(=O)(=O)Nc2ccccc2C(=O)NCC(=O)O)cc1 [Sivelestat sodium] | – | – | – | % Phosphatase Activity (compared to DMSO) PRL-3 (recombinant PRL-3; [1]): 75%; % Phosphatase Activity (compared to DMSO) PRL-1 (recombinant PRL-1; [1]): 89%; % Phosphatase Activity (compared to DMSO) PRL-2 (recombinant PRL-2; [1]): 86% |
| CCc1cnn2c(NCc3ccc[n+]([O-])c3)cc(N3CCCC[C@H]3CCO)nc12 [Dinaciclib (SCH727965)] | – | – | – | % Phosphatase Activity (compared to DMSO) PRL-3 (recombinant PRL-3): 87%; % Phosphatase Activity (compared to DMSO) PRL-1 (recombinant PRL-1): 87%; % Phosphatase Activity (compared to DMSO) PRL-2 (recombinant PRL-2): 89% |
| Cc1cncc(CN2CCC(=C3c4ccc(Cl)cc4CCc4cccnc43)CC2)c1.O=C(O)/C=C/C(=O)O [Rupatadine Fumarate] | 98 | 92 | 100 | – |
| CCc1cc(/C(C)=N/OCc2ccc(C3CCCCC3)c(C(F)(F)F)c2)ccc1CN1CC(C(=O)O)C1 [BAF312 (Siponimod)] | 101 | 99 | 87 | – |
| Capreomycin Sulfate | 113 | 95 | 95 | – |
| CC(=O)c1c(C)c2cnc(Nc3ccc(N4CCNCC4)cn3)nc2n(C2CCCC2)c1=O.O=S(=O)(O)CCO [Palbociclib (PD0332991) Isethionate] | 100 | 75 | 61 | – |
| C[C@H](NCc1ccc(OCc2cccc(F)c2)cc1)C(N)=O [Safinamide Mesylate] | 86 | 103 | 112 | – |
| C[C@]12CC[C@@H]3c4ccc(OC(=O)c5ccccc5)cc4CC[C@H]3[C@@H]1CC[C@@H]2O [Estradiol Benzoate] | 91 | 110 | 117 | – |
| CCOc1cc([C@@H](CS(C)(=O)=O)N2C(=O)c3cccc(NC(C)=O)c3C2=O)ccc1OC [Apremilast (CC-10004)] | 86 | 100 | 78 | – |

| Compound | % Phosphatase Activity (compared to DMSO) PRL-3 (recombinant PRL-3; [2]) [%] | % Phosphatase Activity (compared to DMSO) PRL-1 (recombinant PRL-1; [2]) [%] | % Phosphatase Activity (compared to DMSO) PRL-2 (recombinant PRL-2; [2]) [%] | other results |
| --- | --- | --- | --- | --- |
| CS(=O)(=O)c1ccc(C(=O)Nc2ccc(Cl)c(-c3ccccn3)c2)c(Cl)c1 [Vismodegib (GDC-0449)] | – | – | – | % Phosphatase Activity (compared to DMSO) PRL-3 (recombinant PRL-3; [1]): 79%; % Phosphatase Activity (compared to DMSO) PRL-1 (recombinant PRL-1; [1]): 94%; % Phosphatase Activity (compared to DMSO) PRL-2 (recombinant PRL-2; [1]): 99% |
| O=[N+]([O-])c1ccc(O)c2ncccc12 [Nitroxoline] | 49 | 58 | 48 | – |
| CN(C)CCC=C1c2ccccc2CCc2ccccc21 [Amitriptyline HCl] | 89 | 92 | 101 | – |
| C#C[C@]1(O)C=C[C@H]2[C@@H]3CCC4=CC(=O)CC[C@@H]4[C@H]3CC[C@@]21CC [Gestodene] | 77 | 91 | 102 | – |
| CCC1(c2cnc[nH]2)Cc2ccccc2C1 [Atipamezole] | 87 | 94 | 109 | – |
| C[C@@H]1[C@H](O)[C@@H](C)/C=C/C=C/CC/C=C/C=C/C=C/C=C/[C@H](O[C@H]2O[C@@H](C)[C@H](O)[C@@H](N)[C@H]2O)C[C@@H]2O[C@](O)(C[C@@H](O)[C@H](O)CC[C@@H](O)C[C@@H](O)C[C@@H](O)CC(=O)O[C@H]1C)C[C@H](O)[C@H]2C(=O)O [Nystatin (Fungicidin)] | 81 | 79 | 87 | – |
| Nc1nc(N)c2nc(-c3ccccc3)c(N)nc2n1 [Triamterene] | – | – | – | % Phosphatase Activity (compared to DMSO) PRL-3 (recombinant PRL-3; [1]): 3828%; % Phosphatase Activity (compared to DMSO) PRL-1 (recombinant PRL-1; [1]): 7090%; % Phosphatase Activity (compared to DMSO) PRL-2 (recombinant PRL-2; [1]): 6324% |
| NCCS(=O)(=O)O [Taurine] | – | – | – | % Phosphatase Activity (compared to DMSO) PRL-3 (recombinant PRL-3; [1]): 94%; % Phosphatase Activity (compared to DMSO) PRL-1 (recombinant PRL-1; [1]): 97%; % Phosphatase Activity (compared to DMSO) PRL-2 (recombinant PRL-2; [1]): 77% |
| C=CC(=O)Nc1cccc(Oc2nc(Nc3ccc(N4CCN(C)CC4)cc3)nc3ccsc23)c1 [Olmutinib (HM61713, BI 1482694)] | 94 | 90 | 87 | – |
| [H]/N=C(/N)N[C@H]1[C@H](O)[C@@H](O)[C@H](O[C@@H]2O[C@@H](C)[C@](O)(C=O)[C@H]2O[C@@H]2O[C@@H](CO)[C@H](O)[C@@H](O)[C@@H]2NC)[C@@H](N/C(N)=N\[H])[C@@H]1O [Streptomycin sulfate] | – | – | – | % Phosphatase Activity (compared to DMSO) PRL-3 (recombinant PRL-3; [1]): 85%; % Phosphatase Activity (compared to DMSO) PRL-1 (recombinant PRL-1; [1]): 105%; % Phosphatase Activity (compared to DMSO) PRL-2 (recombinant PRL-2; [1]): 89% |
| Cc1ccc(-n2nc(C(C)(C)C)cc2NC(=O)Nc2ccc(OCCN3CCOCC3)c3ccccc23)cc1 [BIRB 796 (Doramapimod)] | 98 | 108 | 106 | – |
| CC(C)(Oc1ccc(Cl)cc1)C(=O)O [Clofibric Acid] | 81 | 99 | 95 | – |
| CCc1c(Cl)c(O)c(Cl)c(O)c1C(=O)O[C@H]1[C@H](O)[C@H](OC)[C@H](OC/C2=C\C=C\C[C@H](O)/C(C)=C/[C@H](CC)[C@@H](O[C@@H]3OC(C)(C)[C@@H](OC(=O)C(C)C)[C@H](O)[C@@H]3O)/C(C)=C/C(C)=C/C[C@@H]([C@@H](C)O)OC2=O)O[C@@H]1C [Fidaxomicin] | 62 | 85 | 63 | – |
| COCCCOc1cc(C[C@@H](C[C@H](N)[C@@H](O)C[C@H](C(=O)NCC(C)(C)C(N)=O)C(C)C)C(C)C)ccc1OC [Aliskiren Hemifumarate] | 102 | 102 | 122 | – |
| Nc1nc(CC(=O)Nc2ccc(CCNC[C@H](O)c3ccccc3)cc2)cs1 [Mirabegron] | 88 | 104 | 113 | – |
| C/C(=C\c1csc(C)n1)[C@@H]1C[C@@H]2O[C@]2(C)CCC[C@H](C)[C@H](O)[C@@H](C)C(=O)C(C)(C)[C@@H](O)CC(=O)O1 [Epothilone B (EPO906, Patupilone)] | 80 | 98 | 93 | – |
| CN(CCOc1ccc(CC2SC(=O)NC2=O)cc1)c1ccccn1 (stereo not drawn) [Rosiglitazone] | 79 | 90 | 111 | – |
| C[C@H](Cc1cc2c(c(C(N)=O)c1)N(CCCO)CC2)NCCOc1ccccc1OCC(F)(F)F [Silodosin] | – | – | – | % Phosphatase Activity (compared to DMSO) PRL-3 (recombinant PRL-3; [1]): 95%; % Phosphatase Activity (compared to DMSO) PRL-1 (recombinant PRL-1; [1]): 117%; % Phosphatase Activity (compared to DMSO) PRL-2 (recombinant PRL-2; [1]): 104% |
